Several values for one entry are separate records, joined by “and”; a condition that tells them apart may be missing. Equal values may be shown once.

The text below walks through data of patent publication US20110178050A1, “USE OF CYCLOLIGNANS FOR THE TREATMENT OF A HYPERACTIVE IMMUNE SYSTEM” (Axelar AB, priority 2008, published 2011).

One series has as its system mice. Put plainly: Systemic toxicity of trans and cis isomers of cyclolignans in mice. To be noted: nude mice; for Survival (in words) / Toxic signs (in words): 28 mg/kg/d intraperitoneally daily for 5 days; for No. of surviving mice/No. of treated mice: 28 mg/kg/d intraperitoneally daily. The method, then: The experiment was carried out to determine the significance of the stereochemistry of cyclolignans for their general toxicity by investigating systemic toxic effects of trans and cis isomers of cyclolignans in mice. Five-week old pathogen-free nude mice (nu/nu) were used and housed within plastic isolators in a sterile facility. Experimental treatments with podophyllotoxin, deoxypodophyllotoxin, picropodophyllin and deoxypicropodophyllin were performed by injecting each compound dissolved in 10 microL of a mixture of DMSO and saline intraperitoneally daily for 5 days. The dose injected once daily was 28 mg/kg/d and 6 mice were used for each drug. Control mice were treated with the vehicle only.
The mice were checked daily for signs of discomfort, diseases and weight loss.

The test system of another series is helper T lymphocytes. Put plainly: Activation of helper T lymphocytes in human blood (FACS, CD4/CD69). It is filed as cell-based. To be noted: 30 min. The procedure:
(§1) The effects of picropodophyllin and deoxypicropodophyllin on the activation of subgroups of lymphocytes in human blood were determined by flow cytometry (FACS). Lymphocytes from human peripheral blood were purified by ficoll-hypaque (Pharmacia, Amersham) and then distributed in FACS tubes at 500,000 cells in 0.5 mL per tube. Cells were kept in RPMI medium (Life technologies) supplemented with 10% bovine serum […] (BGS; Sigma), 1% penicillin-streptomycin (Sigma) and 1% glutamine (Sigma). The cells were incubated for 30 min at room temperature in the absence (control lymphocytes) or presence of picropodophyllin and deoxypicropodophyllin at 0.1 and 2.5 microM concentrations. After washing, the cells were stained 15 min for the surface molecules CD4, CD8 and CD69. CD4 and CD8 are expressed by two subsets of T lymphocytes, i.e. helper T cells and cytotoxic T cells, respectively, and CD69 is a lymphocyte activation marker. The staining was performed with the following fluorophore conjugated antibodies: anti-CD4PB; anti-CD8APC; anti-CD69APCCy7 (Beckton Dickinson). The cells were then washed with PBS containing 2% FCS and 0.05% NaN3 (FACS buffer) and then stained with […] (PI)/FITC Annexin V (Beckton Dickinson) to determine apoptosis of cells, and after incubation for another 15 min and washing, the cells were analysed by flow cytometry (FACSCalibur; Beckton Dickinson). Data were evaluated using the Cellquest computer software (Beckton Dickinson).

The subject of the next series is human T lymphocytes. Put plainly: 3H-thymidine incorporation, Concanavalin A stimulated proliferation of lymphocytes from patients. The series is classed as cell-based. To be noted: for 3H-thymidine in cyclolignan-treated lymphocytes (% of 3H-thymidine in control lymphocytes): 2.5 microM, Con A three days, 18 h incorporation; for Proliferation of peripheral blood T lymphocytes, in words: lymphocytes of patients with autoimmune diseases. The procedure: The effects of picropodophyllin and deoxypicropodophyllin on human T lymphocyte function, i.e. the proliferation capacity of human T lymphocytes in response to an antigen/mitogen, were measured using a time course tritium labelled thymidine incorporation assay. Lymphocytes from peripheral blood of patients were purified by ficoll-hypaque (Pharmacia, Amersham) and were distributed in 96 well plates at 100,000 cells per well, and all samples were in triplicates. Cells were kept in RPMI 1640 medium (Life technologies) supplemented with 10% human serum (Sigma), 100 units/mL penicillin (Sigma), 100 microg/mL streptomycin (Sigma) and 2 mM L-glutamine (Sigma). Proliferation of lymphocytes was stimulated with the T lymphocyte mitogen Concanavalin A (Con A) 10 microg/mL (Sigma). After three days incubation with Con A, with and without the cyclolignans, 1 microCi ^3H-thymidine (Amersham) was added to each well, and after another eighteen hours cells were harvested and washed, and the amount of ^3H-thymidine incorporated into newly synthesized DNA determined by scintillation counting.
In general terms: Dividing cells build labelled thymidine or BrdU into new DNA.

In series [1] the test system is lymphocytes from human peripheral blood. Put plainly: Apoptosis of human blood lymphocytes (PI/Annexin V, FACS). To be noted: 30 min. The series is classed as cell-based. The method, then:
as §1

The next series deals with cytotoxic T lymphocytes. Put plainly: Activation of cytotoxic T lymphocytes in human blood (FACS, CD8/CD69). It is filed as cell-based. To be noted: for CD8, percent cytotoxic T cells of total cells (events) / CD8/CD69, percent activated cytotoxic T cells of total cytotoxic T cells: 30 min; for Effect on number of activated cytotoxic T lymphocytes (CD8/CD69), in words: 0.1 and 2.5 microM. The method, then: as §1

In series [2] the test system is blood lymphocytes. Put plainly: Effect of two-week treatment on blood lymphocytes in rats. To be noted: 20 mg/kg/12 h intraperitoneally, 14 days. It is filed as in vivo, rats (Sprague-Dawley). The procedure:
In this experiment, healthy 200-grams rats (Sprague-Dawley) were treated with picropodophyllin by intraperitoneal injections twice daily, the dose being 20 mg/kg/12 h, using DMSO/sunflower oil, 9:1, as vehicle. The control group was treated with the vehicle only (totally per day: 200 μL DMSO). Each group included 5 rats. After treatment for 14 days, the rats were sacrificed and blood samples were taken. The number of blood cells in the samples was counted using an Advia 120 Hematology system from Bayer AB (Diagnostica).

Series [3] relates to blood lymphocytes. Put plainly: Effect of seven-day treatment on blood lymphocytes in mice. The series is classed as in vivo. To be noted: 20 mg/kg/12 h intraperitoneally, 7 days. The method, then:
In this experiment, healthy 20-gram mice were treated with picropodophyllin by intraperitoneal injections twice daily, the dose being 20 mg/kg/12 h using DMSO/sunflower oil, 9:1, as vehicle. The control group was treated with the vehicle only (totally per day: 20 μL DMSO/oil). Each group included 3 mice. After treatment for 7 days, the mice were sacrificed and blood samples were taken. The number of blood cells in the samples was counted using an Advia 120 Hematology system from Bayer AB (Diagnostica).

Where [4] appears, read: MS (multiple sclerosis) patients.
Where [5] appears, read: RA (rheumatoid arthritis) patients.
[6] abbreviates: UC (ulcerative colitis) patients.

Turning to `COc1cc([C@@H]2c3cc4c(cc3C[C@H]3COC(=O)[C@H]32)OCO4)cc(OC)c1OC` [Deoxypicropodophyllin], in the series on mice, the “Survival (in words)” value was “survived the whole 5-day period”. Further, in the series with mice, the “Toxic signs (in words)” value is given as “did not exhibit any obvious toxic signs”. The “No. of surviving mice/No. of treated mice” value with mice (Day 1), with mice (Day 2), in the series with mice (Day 3), in the series with mice (Day 4) and in the series on mice (Day 5) was 6/6 in each case. Moreover, the “CD4, percent helper T cells of total cells (events)” value with helper T lymphocytes (0.1 μM) was determined as 36.7%; in the series on helper T lymphocytes (2.5 μM), 37.1%. Moreover, the “CD4/CD69, percent activated helper T cells of total helper T cells” value with helper T lymphocytes (0.1 μM) is 13.2%; in the series on helper T lymphocytes (2.5 μM) it was 7.5%. Besides, the “3H-thymidine in cyclolignan-treated lymphocytes (% of 3H-thymidine in control lymphocytes)” value in the series on human T lymphocytes (AD (Alzheimer's disease) patients) was 9%; with human T lymphocytes (CD (Crohn's disease) patients), 8%; in the series with human T lymphocytes (setting [4]) it was 8%; in the series with human T lymphocytes (setting [5]) it was 7%; with human T lymphocytes (setting [6]), 10%. The “Proliferation of peripheral blood T lymphocytes, in words” value in the series on human T lymphocytes is “suppressed”. Further, the “ANNEXIN V, percent of total cells” value came out at 1.3% in series [1] (0.1 μM) and 1.5% in series [1] (2.5 μM). In addition, the “PI ANNEXIN V, percent of total cells” value in series [1] (0.1 μM) is given as 9.2%; in series [1] (2.5 μM) it was 9.3%. In addition, the “PI, percent of total cells” value in series [1] (0.1 μM) and in series [1] (2.5 μM) was 0% each time. For the same molecule, the “CD8, percent cytotoxic T cells of total cells (events)” value is on record as 34.7% with cytotoxic T lymphocytes (0.1 μM) and 32.8% in the series with cytotoxic T lymphocytes (2.5 μM). Besides, the “CD8/CD69, percent activated cytotoxic T cells of total cytotoxic T cells” value in the series on cytotoxic T lymphocytes (0.1 μM) is 4.1%; with cytotoxic T lymphocytes (2.5 μM), 0.9%. Also, in the series on cytotoxic T lymphocytes, the “Effect on number of activated cytotoxic T lymphocytes (CD8/CD69), in words” value is “dose-dependently decreased”.

Consider `COc1cc([C@@H]2c3cc4c(cc3C[C@H]3COC(=O)[C@@H]32)OCO4)cc(OC)c1OC` [Deoxypodophyllotoxin, reference compound], for which, in the series on mice, the “Survival (in words)” value is recorded as “after 3 days they were all dead”. In the series on mice, the “Toxic signs (in words)” value is given as “serious toxic signs on the second day”. For the same molecule, the “No. of surviving mice/No. of treated mice” value was 6/6 in the series with mice (Day 1); 4/6 with mice (Day 2); 0/6 in the series on mice (Day 3); 0/6 with mice (Day 4); 0/6 with mice (Day 5).

In the case of `COc1cc([C@@H]2c3cc4c(cc3[C@H](O)[C@H]3COC(=O)[C@@H]23)OCO4)cc(OC)c1OC` [Picropodophyllin], the Lymphocytes in blood in the series on blood lymphocytes [2] (individual rats, listed as PPP, 20 mg/kg) is 3.16e+09 L⁻¹ and 4.5e+08 L⁻¹ and 4.2e+09 L⁻¹ and 2.8e+09 L⁻¹ and 3.86e+09 L⁻¹; with blood lymphocytes [3] (individual mice, listed as PPP, 20 mg/kg) it was 3e+07 L⁻¹ and 1e+07 L⁻¹ and 0 L⁻¹. Besides, in the series on blood lymphocytes [2] (rats, versus controls), the “Decrease of blood lymphocytes” value is given as “more than 50%”. The “Survival (in words)” value in the series with mice is listed as “survived the whole 5-day period”. In the series with mice, the “Toxic signs (in words)” value was “did not exhibit any obvious toxic signs”. For the same molecule, the “No. of surviving mice/No. of treated mice” value with mice (Day 1), in the series on mice (Day 2), in the series with mice (Day 3), in the series on mice (Day 4) and with mice (Day 5) was 6/6 throughout. Moreover, the “Effect on number of blood lymphocytes (in words)” value with blood lymphocytes [3] (mice) is “reduced the number of blood lymphocytes”. Moreover, the results for the “CD4, percent helper T cells of total cells (events)” value in the series with helper T lymphocytes (0.1 μM) and in the series with helper T lymphocytes (2.5 μM) were 36.7% and 36.3%, respectively. Further, the results for the “CD4/CD69, percent activated helper T cells of total helper T cells” value in the series with helper T lymphocytes (0.1 μM) and in the series with helper T lymphocytes (2.5 μM) were 11.0% and 9.7%, respectively. The “3H-thymidine in cyclolignan-treated lymphocytes (% of 3H-thymidine in control lymphocytes)” value in the series on human T lymphocytes (AD patients) was 7%; in the series with human T lymphocytes (CD (Crohn's disease) patients) it was 8%; in the series on human T lymphocytes (setting [4]), 10%; with human T lymphocytes (setting [5]), 15%; with human T lymphocytes (setting [6]) it was 13%. For the same molecule, the “Proliferation of peripheral blood T lymphocytes, in words” value in the series with human T lymphocytes was “suppressed”. The “ANNEXIN V, percent of total cells” value in series [1] (0.1 μM) and in series [1] (2.5 μM) was 0.9% in each case. The “PI ANNEXIN V, percent of total cells” value in series [1] (0.1 μM) is on record as 9.4%; in series [1] (2.5 μM), 10.5%. Besides, the “PI, percent of total cells” value in series [1] (0.1 μM) and in series [1] (2.5 μM) was 0% each time. Also, the figures for the “CD8, percent cytotoxic T cells of total cells (events)” value in the series on cytotoxic T lymphocytes (0.1 μM) and with cytotoxic T lymphocytes (2.5 μM) were 35.0% and 34.8%, respectively. The “CD8/CD69, percent activated cytotoxic T cells of total cytotoxic T cells” value with cytotoxic T lymphocytes (0.1 μM) turned out to be 3.2%; with cytotoxic T lymphocytes (2.5 μM), 1.8%. In addition, in the series on cytotoxic T lymphocytes, the “Effect on number of activated cytotoxic T lymphocytes (CD8/CD69), in words” value is reported as “dose-dependently decreased”.

With `COc1cc([C@@H]2c3cc4c(cc3[C@H](O)[C@H]3COC(=O)[C@H]23)OCO4)cc(OC)c1OC` [Podophyllotoxin, reference compound], in the series with mice, the “Survival (in words)” value is listed as “on the second day all of the animals were dead”. In addition, in the series on mice, the “Toxic signs (in words)” value is reported as “became quickly sick”. In addition, the “No. of surviving mice/No. of treated mice” value is listed as 2/6 in the series on mice (Day 1); 0/6 in the series on mice (Day 2); 0/6 in the series on mice (Day 3); 0/6 in the series with mice (Day 4); 0/6 with mice (Day 5).
